Test results: patent US12435089B2, “3-oxadiazolyl substituted pyrazolo[1,5,a]pyrimidines for ROS1, NTRK, and ALK mediated diseases” (TYK MEDICINES, INC., priority 2019, dated 2025)
Like-named read-outs stand apart in the source and are kept apart here.

Key:
[1] = system: Ba/F3-CD74-ROS1-G2032R; assay: Inhibition of cell proliferation (CellTiter-Glo), Ba/F3-CD74-ROS1-G2032R; type: cell-based; settings: 72 hours;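 also: Ba/F3 cell line expressing the CD74-ROS1 fusion with G2032R mutation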
Procedure: (§1) The experiment of inhibiting cell proliferation by compounds was carried out in Hefei Zhongkeprecedo Biomedical Technology Co., Ltd. The Ba/F3 engineered cell line stably transfected with different kinase genes was recovered with RPMI 1640 medium (Biological Industries, Israel)+10% fetal bovine serum (Biological Industries, Israel)+1% double antibody (Penicillin Streptomycin solution, Coring, USA) and cultivated two generations. The logarithmic growth phase cell suspension was taken, and 2000 cells/well were inoculated on 96-well white cell culture plate (Corning 3917, NY, USA) with a volume of 95 μL per well. 5 μL of 20×DMSO solution of the compound to be tested was added into the culture plate containing 95 μL of cell suspension. The blank control group was added with corresponding volume of DMSO, mixed well, and incubated in a 5% CO2 incubator at 37° C. for 72 hours. CellTiter-Glo was used to detect cell viability.

[2] = system: Ba/F3-CD74-ROS1; assay: Inhibition of cell proliferation (CellTiter-Glo), Ba/F3-CD74-ROS1; type: cell-based; settings: 72 hours
Procedure: as §1

[3] = system: Ba/F3-LMNA-NTRK1; assay: Inhibition of cell proliferation (CellTiter-Glo), Ba/F3-LMNA-NTRK1; type: cell-based; settings: 72 hours
Procedure: as §1

[4] = system: Ba/F3-LMNA-NTRK1-G595R; assay: Inhibition of cell proliferation (CellTiter-Glo), Ba/F3-LMNA-NTRK1-G595R; type: cell-based; settings: 72 hours
Procedure: as §1

[5] = target: TRKA (Homo sapiens (Human), UniProt P04629); assay: Radio-tagged HotSpot kinase assay, TRKA;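 also: kinase activity measured through incorporation of 33P from labelled ATP into substrate, 120 min at room temperature, relative to a DMSO-only blank control, reported as inhibition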
Procedure: (§2) Inhibition of protein kinase activity by compounds was carried out on the Radio-tagged HotSpot kinase experimental platform of Reaction Biology Corporation. Fresh reaction solution (20 mM HEPESpH 7.5, 10 mM MgCl2, 1 mM EGTA, 0.02% Brij35, 0.02 mg/ml BSA, 0.1 mM Na3VO4, 2 mM DTT, 1% DMSO) containing corresponding substrates was prepared, cofactor and kinase to be tested were added into the above solution and mixed gently. Echo550 pipetting system was used to add the test compound DMSO solution to each well (the blank control group was added with the corresponding volume of DMSO), then 33P-ATP (with a final specific activity of 0.01 μCi/μL) was added to start the reaction. The reaction solution was incubated at room temperature for 120 minutes.

[6] = target: TRKA (G677C) (Homo sapiens, UniProt P04629, G667C); assay: Radio-tagged HotSpot kinase assay, TRKA (G677C); type: biochemical; settings: 33P-ATP, 120 min, room temperature
Procedure: as §2

[7] = target: TRKB (Homo sapiens (Human), UniProt Q16620); assay: Radio-tagged HotSpot kinase assay, TRKB; type: biochemical; settings: 33P-ATP, 120 min, room temperature
Procedure: as §2

[8] = target: TRKC (Homo sapiens (Human), UniProt Q16288); assay: Radio-tagged HotSpot kinase assay, TRKC; type: biochemical; settings: 33P-ATP, 120 min, room temperature
Procedure: as §2

[9] = target: ALK (G1202R) (Homo sapiens (Human), UniProt Q9UM73, G1202R); assay: Radio-tagged HotSpot kinase assay, ALK (G1202R); type: biochemical; settings: 33P-ATP, 120 min, room temperature
Procedure: as §2

[10] = target: ROS1 (Homo sapiens (Human), UniProt P08922); assay: Radio-tagged HotSpot kinase assay, ROS1
Procedure: as §2

[11] = target: TRKA (G595R) (Homo sapiens (Human), UniProt P04629, G595R); assay: Radio-tagged HotSpot kinase assay, TRKA (G595R)
Procedure: as §2

[12] = target: ROS1 (G2032R) (Homo sapiens (Human), UniProt P08922, G2032R); assay: Radio-tagged HotSpot kinase assay, ROS1 (G2032R)
Procedure: as §2

[13] = target: ALK (Homo sapiens (Human), UniProt Q9UM73); assay: Radio-tagged HotSpot kinase assay, ALK; type: biochemical; settings: 33P-ATP, 120 min, room temperature
Procedure: as §2

[14] = read-out: TRKA (IC50/nM), 33P-ATP, 120 min, room temperature
[15] = read-out: ROS1 (IC50/nM), 33P-ATP, 120 min, room temperature
[16] = read-out: ROS1 (G2032R) (IC50/nM), 33P-ATP, 120 min, room temperature
[17] = read-out: TRKA (G595R) (IC50/nM), 33P-ATP, 120 min, room temperature

Sequence of TRKB (Q16620 32-822): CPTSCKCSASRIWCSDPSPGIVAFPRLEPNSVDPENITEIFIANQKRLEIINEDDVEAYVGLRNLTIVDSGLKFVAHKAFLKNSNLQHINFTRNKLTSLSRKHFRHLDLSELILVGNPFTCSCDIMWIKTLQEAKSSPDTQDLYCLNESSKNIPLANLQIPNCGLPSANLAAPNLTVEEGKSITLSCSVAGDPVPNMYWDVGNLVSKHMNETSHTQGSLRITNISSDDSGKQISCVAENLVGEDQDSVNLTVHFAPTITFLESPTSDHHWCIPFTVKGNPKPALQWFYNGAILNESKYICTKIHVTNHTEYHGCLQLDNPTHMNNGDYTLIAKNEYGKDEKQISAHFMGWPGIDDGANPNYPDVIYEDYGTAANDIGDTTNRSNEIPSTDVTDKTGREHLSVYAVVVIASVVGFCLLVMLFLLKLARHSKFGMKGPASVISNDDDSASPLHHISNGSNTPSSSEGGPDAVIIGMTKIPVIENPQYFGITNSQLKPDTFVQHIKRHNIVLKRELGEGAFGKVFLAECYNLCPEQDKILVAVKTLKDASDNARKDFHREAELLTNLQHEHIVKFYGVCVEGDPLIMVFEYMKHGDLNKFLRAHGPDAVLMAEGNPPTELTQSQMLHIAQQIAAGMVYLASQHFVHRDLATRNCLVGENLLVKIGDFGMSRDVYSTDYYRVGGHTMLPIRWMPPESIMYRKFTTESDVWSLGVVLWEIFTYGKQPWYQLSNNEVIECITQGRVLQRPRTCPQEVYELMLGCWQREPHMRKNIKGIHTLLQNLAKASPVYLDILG
Sequence of ALK (G1202R) (Q9UM73 19-1620 G1202R): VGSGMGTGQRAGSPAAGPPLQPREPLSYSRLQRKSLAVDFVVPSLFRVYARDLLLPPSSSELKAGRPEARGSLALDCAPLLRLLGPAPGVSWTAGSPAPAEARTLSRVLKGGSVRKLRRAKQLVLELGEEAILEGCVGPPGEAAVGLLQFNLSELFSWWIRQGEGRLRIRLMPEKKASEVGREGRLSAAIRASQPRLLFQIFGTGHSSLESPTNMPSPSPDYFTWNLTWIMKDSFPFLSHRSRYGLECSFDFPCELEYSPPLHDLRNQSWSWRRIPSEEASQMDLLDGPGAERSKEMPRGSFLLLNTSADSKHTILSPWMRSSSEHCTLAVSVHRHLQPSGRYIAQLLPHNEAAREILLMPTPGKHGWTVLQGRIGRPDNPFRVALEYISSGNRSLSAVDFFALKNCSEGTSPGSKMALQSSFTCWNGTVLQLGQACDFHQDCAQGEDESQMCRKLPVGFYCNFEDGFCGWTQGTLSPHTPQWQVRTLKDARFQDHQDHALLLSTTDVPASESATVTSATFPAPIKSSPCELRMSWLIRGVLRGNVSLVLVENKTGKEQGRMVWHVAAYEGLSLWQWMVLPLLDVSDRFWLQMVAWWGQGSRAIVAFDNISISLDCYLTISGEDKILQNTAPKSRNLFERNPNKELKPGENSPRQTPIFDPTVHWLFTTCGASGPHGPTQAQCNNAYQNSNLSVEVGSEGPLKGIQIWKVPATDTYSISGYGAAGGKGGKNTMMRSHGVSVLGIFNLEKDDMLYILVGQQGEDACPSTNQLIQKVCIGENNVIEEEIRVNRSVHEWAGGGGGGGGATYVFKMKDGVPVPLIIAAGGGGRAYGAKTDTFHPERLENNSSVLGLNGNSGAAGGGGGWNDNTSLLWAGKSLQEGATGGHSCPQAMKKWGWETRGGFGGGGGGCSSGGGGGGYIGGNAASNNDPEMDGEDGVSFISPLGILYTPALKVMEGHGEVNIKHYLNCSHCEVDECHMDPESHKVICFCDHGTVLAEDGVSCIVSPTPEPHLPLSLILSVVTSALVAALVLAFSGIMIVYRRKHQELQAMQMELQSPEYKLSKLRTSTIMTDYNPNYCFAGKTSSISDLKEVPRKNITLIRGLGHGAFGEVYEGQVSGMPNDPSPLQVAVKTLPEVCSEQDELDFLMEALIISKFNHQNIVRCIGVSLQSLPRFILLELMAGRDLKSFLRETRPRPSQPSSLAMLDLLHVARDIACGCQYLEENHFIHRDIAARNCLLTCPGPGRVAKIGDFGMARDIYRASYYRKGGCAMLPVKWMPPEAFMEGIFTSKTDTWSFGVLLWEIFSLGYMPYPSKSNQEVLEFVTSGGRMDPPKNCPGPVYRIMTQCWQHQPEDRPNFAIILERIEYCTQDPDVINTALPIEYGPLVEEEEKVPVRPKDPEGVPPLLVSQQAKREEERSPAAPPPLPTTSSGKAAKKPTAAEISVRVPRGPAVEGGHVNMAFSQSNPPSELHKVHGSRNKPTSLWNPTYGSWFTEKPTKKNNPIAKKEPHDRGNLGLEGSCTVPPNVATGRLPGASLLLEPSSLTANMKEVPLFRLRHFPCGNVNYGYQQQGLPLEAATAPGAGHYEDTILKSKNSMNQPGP
Sequence of ROS1 (P08922 28-2347): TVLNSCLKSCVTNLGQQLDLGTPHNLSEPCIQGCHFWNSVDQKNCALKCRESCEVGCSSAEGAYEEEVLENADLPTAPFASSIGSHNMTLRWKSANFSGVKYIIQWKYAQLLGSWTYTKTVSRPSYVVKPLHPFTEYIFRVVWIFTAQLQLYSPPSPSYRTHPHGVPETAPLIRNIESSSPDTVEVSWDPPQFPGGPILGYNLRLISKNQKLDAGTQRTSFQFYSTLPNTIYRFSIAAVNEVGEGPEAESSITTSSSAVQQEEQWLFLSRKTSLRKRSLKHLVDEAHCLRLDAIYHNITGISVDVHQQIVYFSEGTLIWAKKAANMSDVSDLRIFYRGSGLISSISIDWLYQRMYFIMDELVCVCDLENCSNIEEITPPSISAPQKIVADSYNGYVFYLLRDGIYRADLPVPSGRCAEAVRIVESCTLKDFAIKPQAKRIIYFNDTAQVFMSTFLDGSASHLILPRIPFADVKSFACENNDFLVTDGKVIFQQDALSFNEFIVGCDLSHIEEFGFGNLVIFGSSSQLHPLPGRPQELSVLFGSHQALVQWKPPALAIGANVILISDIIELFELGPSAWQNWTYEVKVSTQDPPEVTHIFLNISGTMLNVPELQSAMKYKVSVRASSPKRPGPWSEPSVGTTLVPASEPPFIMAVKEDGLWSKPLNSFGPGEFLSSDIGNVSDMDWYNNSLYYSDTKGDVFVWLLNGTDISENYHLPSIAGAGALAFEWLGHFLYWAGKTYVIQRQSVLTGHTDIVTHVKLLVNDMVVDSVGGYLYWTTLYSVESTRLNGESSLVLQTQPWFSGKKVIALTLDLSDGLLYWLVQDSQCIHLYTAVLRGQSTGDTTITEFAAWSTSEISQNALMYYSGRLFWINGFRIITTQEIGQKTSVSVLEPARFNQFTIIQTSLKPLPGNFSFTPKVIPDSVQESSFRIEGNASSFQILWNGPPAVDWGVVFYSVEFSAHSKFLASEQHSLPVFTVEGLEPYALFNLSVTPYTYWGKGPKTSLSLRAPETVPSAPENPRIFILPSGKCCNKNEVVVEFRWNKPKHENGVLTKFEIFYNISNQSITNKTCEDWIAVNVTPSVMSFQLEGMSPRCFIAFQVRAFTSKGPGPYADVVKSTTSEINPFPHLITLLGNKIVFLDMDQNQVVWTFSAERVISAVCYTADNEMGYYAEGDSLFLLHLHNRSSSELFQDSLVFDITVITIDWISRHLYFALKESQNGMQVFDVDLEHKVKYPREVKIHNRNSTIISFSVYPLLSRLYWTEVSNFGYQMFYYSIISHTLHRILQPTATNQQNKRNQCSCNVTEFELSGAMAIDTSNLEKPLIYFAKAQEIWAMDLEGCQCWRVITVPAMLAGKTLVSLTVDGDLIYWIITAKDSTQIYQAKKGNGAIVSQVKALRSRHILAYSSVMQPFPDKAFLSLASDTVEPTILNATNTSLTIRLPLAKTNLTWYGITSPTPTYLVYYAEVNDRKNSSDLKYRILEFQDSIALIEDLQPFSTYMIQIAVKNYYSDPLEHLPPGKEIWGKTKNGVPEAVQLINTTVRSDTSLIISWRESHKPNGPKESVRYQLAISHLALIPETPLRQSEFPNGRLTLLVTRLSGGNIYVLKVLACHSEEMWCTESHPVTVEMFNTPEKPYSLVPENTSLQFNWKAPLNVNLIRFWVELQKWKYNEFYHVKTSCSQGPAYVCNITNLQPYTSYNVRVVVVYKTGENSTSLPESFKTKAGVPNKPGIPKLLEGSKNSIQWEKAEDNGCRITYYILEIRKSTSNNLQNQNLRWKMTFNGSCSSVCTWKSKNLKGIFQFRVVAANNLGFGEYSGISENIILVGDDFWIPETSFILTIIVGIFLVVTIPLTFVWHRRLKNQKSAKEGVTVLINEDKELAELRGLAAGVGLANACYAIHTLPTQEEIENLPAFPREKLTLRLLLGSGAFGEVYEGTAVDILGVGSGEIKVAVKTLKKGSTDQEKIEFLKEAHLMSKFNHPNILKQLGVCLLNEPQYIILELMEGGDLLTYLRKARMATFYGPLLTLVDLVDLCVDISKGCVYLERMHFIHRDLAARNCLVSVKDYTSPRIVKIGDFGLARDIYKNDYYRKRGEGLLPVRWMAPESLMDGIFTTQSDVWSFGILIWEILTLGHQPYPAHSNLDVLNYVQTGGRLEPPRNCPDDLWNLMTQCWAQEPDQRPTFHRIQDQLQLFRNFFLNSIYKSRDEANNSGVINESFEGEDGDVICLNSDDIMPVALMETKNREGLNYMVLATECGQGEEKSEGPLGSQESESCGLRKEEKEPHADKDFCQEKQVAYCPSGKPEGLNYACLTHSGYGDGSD
Sequence of ALK (Q9UM73 19-1620): as the sequence (Q9UM73 19-1620 G1202R) above, with R1184G counted along it
Sequence of ROS1 (G2032R) (P08922 28-2347 G2032R): as the sequence (P08922 28-2347) above, with G2005R counted along it

IC50 [1] [nM]	IC50 [2] [nM]	IC50 [3] [nM]	IC50 [4] [nM]	IC50 [5] [nM]	IC50 [7] [nM]	IC50 [8] [nM]	SMILES	other results
140	–	–	–	–	–	–	CCCC1(C)NC(c2cnn3ccc(N[C@H](C)c4cc(F)ccc4OC)nc23)=NO1 (stereo partly shown) [Example 19]	–
45.9	5.2	5.1	12.5	–	–	–	C[C@@H](Nc1ccn2ncc(C3=NOC(C)(C)N3)c2n1)c1cc(F)cc(F)c1F [Example 13]	–
–	–	–	–	50 to 500	–	–	C[C@@H](Nc1ccn2ncc(C3=NOC(C)(C)N3)c2n1)c1ccc(F)cc1 [Example 25]	–
43.7	6	2	2.8	–	–	–	[2H]C([2H])([2H])Oc1ccc(F)cc1[C@@H](C)Nc1nc2c(C3=NOC(C)(C)N3)cnn2cc1F [Example 6]	–
–	–	–	–	0.5 to 5	0.5 to 5	0.5 to 5	C[C@@H](Nc1ccn2ncc(C3=NOC(C)(C)N3)c2n1)c1cc(F)ccc1Br [Example 23]	IC50 [6]: 5 to 50 nM; IC50 [9]: 5 to 50 nM; IC50 [10]: 0.5 to 5 nM; IC50 [11]: 5 to 50 nM; IC50 [12]: 0.5 to 5 nM
–	–	–	–	–	–	–	C[C@H](Nc1ccn2ncc(C3=NOC(C)(C)N3)c2n1)c1cc(F)ccc1Br [Example 24]	IC50 [5, 14]: > 500 nM
–	–	–	–	0.5 to 5	0.5 to 5	0.5 to 5	C[C@@H](Nc1ccn2ncc(C3=NOC(C)(C)N3)c2n1)c1ccccc1Cl [Example 26]	IC50 [13]: 5 to 50 nM; IC50 [10]: 0.5 to 5 nM
–	–	–	–	5 to 50	0.5 to 5	0.5 to 5	Cc1nc(-c2cnn3ccc(N[C@H](C)c4cc(F)ccc4O)nc23)no1 [Example 67]	IC50 [10]: 0.5 to 5 nM; IC50 [11]: 5 to 50 nM; IC50 [12]: 5 to 50 nM
–	–	–	458	–	–	–	COc1ccc(F)c(Cl)c1[C@@H](C)Nc1ccn2ncc(C3=NOC(C)(C)N3)c2n1 [Example 1]	–
–	–	–	–	0.5 to 5	0.5 to 5	< 0.5	CCOCC1(C)NC(c2cnn3ccc(N[C@H](C)c4cc(F)ccc4O)nc23)=NO1 (stereo partly shown) [Example 66]	IC50 [10, 15]: < 0.5 nM; IC50 [11]: 0.5 to 5 nM; IC50 [12, 16]: < 0.5 nM
16.3	2.2	5.8	7	–	–	–	COc1c(F)cc(F)cc1[C@@H](C)Nc1ccn2ncc(C3=NOC(C)(C)N3)c2n1 [Example 30]	–
–	–	–	–	–	–	–	COc1ccc(F)cc1[C@@H](C)Nc1ccn2ncc(C3=NOC(C)(c4ccc(F)cc4)N3)c2n1 (stereo partly shown) [Example 47]	IC50 [6]: 50 to 500 nM
23.5	2.8	2.3	5.1	–	–	–	C[C@@H](Nc1ccn2ncc(C3=NOC(C)(C)N3)c2n1)c1cc(F)ccc1OC(F)(F)F [Example 17]	–
10.3	2.8	2.1	3.3	–	–	–	C[C@@H](Nc1ccn2ncc(C3=NOC(C)(C)N3)c2n1)c1cc(F)ccc1OCC(F)(F)F [Example 3]	–
–	–	–	–	0.5 to 5	0.5 to 5	< 0.5	C[C@H](Nc1ccn2ncc(C3=NOC(C)(C)N3)c2n1)c1cc(F)cc2ccccc12 [Example 54]	IC50 [10, 15]: < 0.5 nM; IC50 [11]: 0.5 to 5 nM; IC50 [12, 16]: < 0.5 nM
–	–	–	–	0.5 to 5	0.5 to 5	< 0.5	C[C@@H](Nc1ccn2ncc(C3=NCC(C)(C)N3)c2n1)c1cc(F)ccc1F [Example 65]	IC50 [10, 15]: < 0.5 nM; IC50 [11]: 0.5 to 5 nM; IC50 [12, 16]: < 0.5 nM
–	–	–	–	0.5 to 5	0.5 to 5	0.5 to 5	C[C@@H](Nc1ccn2ncc(C3=NOC(C)(C)N3)c2n1)c1cc(F)cc(F)c1 [Example 27]	IC50 [13]: 5 to 50 nM; IC50 [10]: 0.5 to 5 nM
81.1	8.4	18.2	30.1	–	–	–	C[C@@H](Nc1ccn2ncc(C3=NOC(C)(C)N3)c2n1)c1cc(F)cc2ccccc12 [Example 53]	–
–	52.1	45.8	161	–	–	–	COc1cc(F)c(F)cc1[C@@H](C)Nc1ccn2ncc(C3=NOC(C)(C)N3)c2n1 [Example 32]	–
155	26.2	100	890	–	0.5 to 5	–	C[C@@H](Oc1ccn2ncc(C3=NOC(C)(C)N3)c2n1)c1c(Cl)ccc(F)c1Cl [Example 9]	IC50 [6]: 50 to 500 nM; IC50 [13]: 50 to 500 nM

IC50 [1] [nM]	IC50 [2] [nM]	IC50 [3] [nM]	IC50 [4] [nM]	IC50 [5] [nM]	IC50 [7] [nM]	IC50 [8] [nM]	SMILES	other results
–	–	–	–	50 to 500	–	–	CC(Nc1ccn2ncc(C3=NOC(C)(C)N3)c2n1)c1ccc(F)cc1 (racemic) [Example 25 racemate]	–
–	–	–	–	0.5 to 5	0.5 to 5	0.5 to 5	Cc1ccc(F)cc1[C@@H](C)Nc1ccn2ncc(C3=NOC(C)(C)N3)c2n1 [Example 42]	IC50 [13]: 5 to 50 nM; IC50 [10]: 0.5 to 5 nM
–	–	–	–	–	–	–	[2H]C([2H])([2H])Oc1ccc(F)cc1[C@@H](C)Nc1ccn2ncc(C3=NOC(C)(C)N3)c2n1 [Example 4]	IC50 [6]: 5 to 50 nM; IC50 [13]: 0.5 to 5 nM; IC50 [9]: 5 to 50 nM; IC50 [11]: 5 to 50 nM
–	–	–	–	–	< 0.5	< 0.5	CCCCC1NC(c2cnn3ccc(N[C@H](C)c4cc(F)ccc4O)nc23)=NO1 (stereo partly shown) [Example 69]	IC50 [10, 15]: < 0.5 nM; IC50 [5, 14]: < 0.5 nM; IC50 [11, 17]: < 0.5 nM; IC50 [12, 16]: < 0.5 nM
–	–	–	387	–	–	–	COc1ccc(OC)c([C@@H](C)Nc2ccn3ncc(C4=NOC(C)(C)N4)c3n2)c1 [Example 29]	–
54.4	–	–	3.5	–	–	–	C[C@@H](Nc1ccn2ncc(C3=NOC(C)(C)N3)c2n1)c1cccc(F)c1 [Example 31]	–
–	–	–	–	–	–	–	COc1ccc(F)cc1[C@@H](C)Nc1ccn2ncc(C3=NOC(C)(c4ccccn4)N3)c2n1 (stereo partly shown) [Example 48]	IC50 [6]: 50 to 500 nM
–	–	–	–	50 to 500	–	–	COc1ccc(F)cc1[C@H](C)Nc1ccn2ncc(C3=NOC(C)(C)N3)c2n1 [Example 41]	–
–	–	–	–	–	–	–	COc1ccc(F)cc1[C@@H](C)Nc1ccn2ncc(C3=NOC4(CCOCC4)N3)c2n1 [Example 46]	IC50 [6]: 5 to 50 nM
47.9	6.6	26.7	25.4	0.5 to 5	< 0.5	< 0.5	COC(=O)N1CCC2(CC1)NC(c1cnn3ccc(N[C@H](C)c4cc(F)ccc4OC)nc13)=NO2 [Example 55]	IC50 [10, 15]: < 0.5 nM; IC50 [11]: 0.5 to 5 nM; IC50 [12, 16]: < 0.5 nM
–	–	–	–	50 to 500	–	–	Cc1ccc(F)cc1[C@H](C)Nc1ccn2ncc(C3=NOC(C)(C)N3)c2n1 [Example 43]	–
–	–	–	113	–	–	–	COc1c(F)ccc(F)c1[C@@H](C)Nc1ccn2ncc(C3=NOC(C)(C)N3)c2n1 [Example 2]	–
34.8	4.9	3.8	8.6	–	–	–	C[C@@H](Nc1ccn2ncc(C3=NOC(C)(C)N3)c2n1)c1cc(F)cnc1OCC(F)(F)F [Example 15]	–
–	–	–	–	–	< 0.5	< 0.5	C[C@@H](Nc1ccn2ncc(C3=NOC(C)(C)N3)c2n1)c1cc(F)ccc1O [Example 68]	IC50 [10, 15]: < 0.5 nM; IC50 [5, 14]: < 0.5 nM; IC50 [11, 17]: < 0.5 nM; IC50 [12, 16]: < 0.5 nM
185	32.2	76.9	110	0.5 to 5	0.5 to 5	0.5 to 5	COc1ccc(F)cc1[C@@H](C)Oc1ccn2ncc(C3=NOC(C)(C)N3)c2n1 [Example 71]	IC50 [10]: 0.5 to 5 nM; IC50 [11]: 0.5 to 5 nM; IC50 [12]: 0.5 to 5 nM
–	–	–	–	–	–	–	COc1ccc(F)cc1[C@@H](C)Nc1ccn2ncc(C3=NOC4(CCCCC4)N3)c2n1 [Example 45]	IC50 [6]: 5 to 50 nM
120	15.7	25.9	386	–	–	–	C[C@@H](Nc1ccn2ncc(C3=NOC(C)(C)N3)c2n1)c1cc(F)ccc1C(F)(F)F [Example 33]	–
43.6	–	–	–	–	–	–	COc1ccc(F)cc1[C@@H](C)Nc1nc2c(C3=NOC(C)(C)N3)cnn2cc1F [Example 20]	–
59.2	6.9	14.2	13.9	–	–	–	COc1ccc(F)cc1[C@@H](C)Nc1ccn2ncc(C3=NOC4(CCCC4)N3)c2n1 [Example 44]	IC50 [6]: 0.5 to 5 nM
–	–	–	–	0.5 to 5	0.5 to 5	0.5 to 5	C[C@@H](Nc1ccn2ncc(C3=NOC(C)(C)N3)c2n1)c1c(Cl)ccc(F)c1Cl [Example 14]	IC50 [6]: 5 to 50 nM; IC50 [9]: 5 to 50 nM; IC50 [10]: 0.5 to 5 nM; IC50 [11]: 5 to 50 nM; IC50 [12]: 0.5 to 5 nM
